Assay results published in patent US5436229A, “Bisulfite adducts of arginine aldehydes” (Eli Lilly and Company, priority 1994, dated 1995).

How the values were obtained:
Assay type in all cases: biochemical
[1] = biological target: human thrombin (Homo sapiens, UniProt P00734); assay: Thrombin amidase inhibition (Kass), chromogenic substrate
Procedure: The assay is carried out by mixing 50 μl buffer (0.03M Tris, 0.15M NaCl, pH 7.4) with 25 μl of human thrombin solution (purified human thrombin, Enzyme Research Laboratories, South Bend, Ind., at 8 NIH units/ml) and 25 μl of test compound in a solvent (50% aqueous methanol (v:v)). Then 150 μl of an aqueous solution of the chromogenic substate (at 0.25 mg/ml) are added and the rates of hydrolysis of the substrate are measured by monitoring the reactions at 405 nm for the release of p-nitroaniline. Standard curves are constructed by plotting free thrombin concentration against hydrolysis rate. […] The amount of free inhibitor in each assay is calculated by subtracting the number of moles of bound thrombin from the number of moles of added inhibitor (test compound).
The Kass value is the hypothetical equilibrium constant for the reaction between thrombin and the test compound (I) . [formula]
Kass is calculated for a range of concentrations of test compounds and the mean value reported in units of liter per mole.

[2] = biological target: T1, tissue plasminogen activator (t-PA) (Homo sapiens, UniProt P00750); assay: Serine protease inhibition (Kass), t-PA
T1 construct: purchased American Diagnostica, Greenwich, Conn
Procedure: (§1) By substantially following the procedures described above for human thrombin, and using other human blood coagulation system serine proteases and using fibrinolytic system serine proteases, with the appropriate chromogenic substrates, identified below, the selectivity of the compounds of the present invention with respect to the coagulation factor serine proteases and to the fibronolytic serine proteases are evaluated as well as their substantial lack of interference with human plasma clot fibrinolysis.
(§2) Human plasmin is purchased from Boehringer Mannheim, Indianapolis, Ind.; nt-PA is purchased as single chain activity reference from American Diagnostica, Greenwich, Conn.; modified-t-PA6 (mt-PA6) is prepared at Eli Lilly and Company by procedure known in the art (See, Burck, et al., J. Biol. Chem., 265, […] (1990). Plasmin chromogenic substrate H-D-Val-Leu-Lys-p-nitroanilide and tissue plasminogen activator (t-PA) substrate H-D-Ile-Pro-Arg-p-nitroanilide are purchased from Kabi Vitrum, Stockholm, Sweden.

[3] = biological target: T2, Human plasmin (Homo sapiens, UniProt P00747); assay: Serine protease inhibition (Kass), plasmin
T2 construct: Human plasmin is purchased from Boehringer Mannheim; purchased Boehringer Mannheim, Indianapolis, Ind
Procedure: as §1, §2

[4] = biological target: T3, factor Xa (Homo sapiens, UniProt P00742); assay: Serine protease inhibition (Kass), factor Xa
T3 construct: Human factors X, Xa, IXa, XIa, and XIIa are purchased from Enzyme Research Laboratories; purchased Enzyme Research Laboratories, South Bend, Ind
Procedure: as §1
(§3) Human factors X, Xa, IXa, XIa, and XIIa are purchased from Enzyme Research Laboratories, South Bend, Ind.; human urokinase from Leo Pharmaceuticals, Denmark; and recombinant activated Protein C (aPC) is prepared at Eli Lilly and Co. substantially according to U.S. Pat. No. 4,981,952 incorporated by reference herein in its entirety. Chromogenic substrates: N-Benzoyl-Ile-Glu-Gly-Arg-p-nitroanilide (for factor Xa); N-Cbz-D-Arg-Gly-Arg-p-nitroanilide (for factor IXa assay as the factor Xa substrate); Pyroglutamyl-Pro-Arg-p-nitroanilide (for Factor XIa and for aPC); H-D-Pro-Phe-Arg-p-nitroanilide (for factor XIIa); and Pyroglutamyl-Gly-Arg-p-nitroanilide (for urokinase); are purchased from KabiVitrum, Stockholm, Sweden, or from Midwest Biotech, Fishers, Ind. Bovine trypsin is purchased from Worthington Biochemicals, Freehold, N.J., and human plasma kallikrein from Kabi Vitrum, Stockholm, Sweden. Chromogenic substrate H-D-Pro-Phe-Arg-p-nitroanilide for plasma kallikrein is purchased from Kabi Vitrum, Stockholm, Sweden. N-Benzoyl-Phe-Val-Arg-p-nitroanilide, the substrate for human thrombin and for trypsin, is synthesized according to procedures described above for the compounds of the present invention, using known methods of peptide coupling from commercially available reactants, or purchaed from Midwest Biotech, Fishers, Ind.

[5] = biological target: T4, Bovine trypsin (Bos taurus, UniProt P00760); assay: Serine protease inhibition (Kass), trypsin
T4 construct: Bovine trypsin is purchased from Worthington Biochemicals; purchased Worthington Biochemicals, Freehold, N.J
T4 sequence (P00760 24-246): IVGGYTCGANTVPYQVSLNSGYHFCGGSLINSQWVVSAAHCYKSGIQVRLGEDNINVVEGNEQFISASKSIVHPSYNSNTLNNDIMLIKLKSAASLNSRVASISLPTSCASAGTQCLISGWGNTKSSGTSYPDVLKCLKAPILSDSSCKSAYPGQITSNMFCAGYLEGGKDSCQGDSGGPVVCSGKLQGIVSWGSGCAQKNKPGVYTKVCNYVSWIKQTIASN
Procedure: as §1, §3

[6] = system: human plasma; assay: Human plasma anticoagulation, activated partial thromboplastin time (APTT)
Procedure: (§4) Fibrinogen is prepared from in-date ACD human blood as the fraction I-2 according to previous procedures and specifications. Smith, Biochem. […] Coagulation reagents ACTIN, Thromboplastin, and Human plasma are from Baxter Healthcare Corp., Dade Division, Miami, Fla. Bovine thrombin from Parke-Davis (Detroit, Mich.) is used for coagulation assays in plasma. Coagulation assay procedures are as previously described. […] A CoAScreener coagulation instrument (American LABor, Inc.) is used for all coagulation assay measurements. […] The compounds of formula I are added to human or animal plasma over a wide range of concentrations to determine prolongation effects on the APTT, PT, and TT assays. Linear extrapolations are performed to estimate the concentrations required to double the clotting time for each assay.

[7] = system: human plasma; assay: Human plasma anticoagulation, thrombin time (TT)
Procedure: as §4

[8] = system: human plasma; assay: Human plasma anticoagulation, prothrombin time (PT)
Procedure: as §4

T1 sequence (P00750 36-562): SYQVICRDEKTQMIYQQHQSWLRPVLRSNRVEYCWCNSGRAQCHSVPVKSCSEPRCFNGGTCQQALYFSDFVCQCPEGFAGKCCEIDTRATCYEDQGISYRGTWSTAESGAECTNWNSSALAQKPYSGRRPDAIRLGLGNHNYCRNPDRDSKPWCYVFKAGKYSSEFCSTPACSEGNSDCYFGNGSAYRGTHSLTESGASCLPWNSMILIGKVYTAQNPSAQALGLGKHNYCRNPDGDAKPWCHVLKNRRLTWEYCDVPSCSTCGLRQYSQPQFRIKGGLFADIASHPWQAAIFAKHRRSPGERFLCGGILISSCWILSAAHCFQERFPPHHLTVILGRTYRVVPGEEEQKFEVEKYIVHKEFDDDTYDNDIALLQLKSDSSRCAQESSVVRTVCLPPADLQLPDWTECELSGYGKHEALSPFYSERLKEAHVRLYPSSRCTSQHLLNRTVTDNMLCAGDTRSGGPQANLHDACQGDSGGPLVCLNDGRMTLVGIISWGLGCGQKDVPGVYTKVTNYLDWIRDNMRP
T3 sequence (P00742 235-488 limits assumed): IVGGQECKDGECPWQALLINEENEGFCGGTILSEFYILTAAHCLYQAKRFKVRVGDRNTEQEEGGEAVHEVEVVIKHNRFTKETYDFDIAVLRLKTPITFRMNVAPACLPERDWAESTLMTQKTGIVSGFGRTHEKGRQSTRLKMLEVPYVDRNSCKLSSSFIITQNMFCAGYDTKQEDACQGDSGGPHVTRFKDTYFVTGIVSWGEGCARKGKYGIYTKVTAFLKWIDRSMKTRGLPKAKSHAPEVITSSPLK
T3 sequence (P00742 41-179 partner limits assumed): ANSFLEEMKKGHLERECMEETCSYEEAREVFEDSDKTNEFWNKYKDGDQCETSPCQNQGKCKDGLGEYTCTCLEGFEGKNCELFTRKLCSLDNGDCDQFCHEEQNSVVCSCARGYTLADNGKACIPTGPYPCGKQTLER
T2 sequence (P00747 581-810 limits assumed): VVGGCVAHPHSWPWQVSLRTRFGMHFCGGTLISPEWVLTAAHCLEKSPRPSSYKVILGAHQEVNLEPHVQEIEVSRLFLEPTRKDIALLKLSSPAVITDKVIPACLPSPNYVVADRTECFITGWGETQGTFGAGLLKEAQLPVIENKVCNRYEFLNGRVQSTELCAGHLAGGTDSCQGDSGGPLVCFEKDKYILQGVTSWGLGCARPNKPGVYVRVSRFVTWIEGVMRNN
T2 sequence (P00747 97-580 partner limits assumed): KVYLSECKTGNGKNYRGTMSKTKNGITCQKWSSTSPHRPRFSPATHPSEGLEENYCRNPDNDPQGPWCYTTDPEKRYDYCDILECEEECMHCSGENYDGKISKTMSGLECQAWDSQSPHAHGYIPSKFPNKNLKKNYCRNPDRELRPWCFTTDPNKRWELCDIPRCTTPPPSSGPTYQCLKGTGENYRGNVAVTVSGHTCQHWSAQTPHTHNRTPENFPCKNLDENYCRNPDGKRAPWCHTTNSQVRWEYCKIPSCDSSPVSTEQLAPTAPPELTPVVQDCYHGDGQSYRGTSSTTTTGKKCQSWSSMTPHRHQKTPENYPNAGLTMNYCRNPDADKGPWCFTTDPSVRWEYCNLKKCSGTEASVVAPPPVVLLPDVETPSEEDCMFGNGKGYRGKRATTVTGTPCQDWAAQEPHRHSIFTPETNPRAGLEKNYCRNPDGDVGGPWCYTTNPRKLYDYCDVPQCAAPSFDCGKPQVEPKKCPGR

Structure (SMILES)	Kass Human Thrombin [1]	Kass t-PA [2]	Kass Plasmin [3]	Kass Xa [4]	Kass Trypsin [5]	2 × Clotting time APTT [6]	2 × Clotting time TT [7]	2 × Clotting time PT [8]
CC(C)C1N[C@@H](C(=O)N2CCC[C@H]2C(=O)N[C@H](C=O)CCCNC(=N)N)C(C)(C)S1.Cl.Cl (stereo partly drawn) [Example 5, D-2-Isopropyl-5,5-Dimethylthiazolidinyl-4-Carbonyl-L-Prolinyl-L-Arginine Aldehyde Dihydrochloride]	4 L/mol × 10^6							
Cl.Cl.Cl.N=C(N)NCCC[C@@H](C=O)NC(=O)[C@@H]1CCCN1C(=O)[C@H]1C[C@H](Oc2ccc3ccccc3c2)CN1.O [Example 6, trans-4-(2-Naphthyloxy)-D-Prolinyl-L-Prolinyl-L-Arginine Aldehyde Trihydrochloride Monohydrate]	21 L/mol × 10^6							
Cl.Cl.Cl.N=C(N)NCCC[C@@H](C=O)NC(=O)[C@@H]1CCCN1C(=O)[C@H]1C[C@H](Sc2ccccc2)CN1.O.O.O [Example 14, trans-4-phenylthio-D-prolinyl-L-prolinyl-L-arginine aldehyde trihydrochloride trihydrate]	37 L/mol × 10^6							
Cl.Cl.N=C(N)NCCC[C@@H](C=O)NC(=O)[C@@H]1CCCN1C(=O)CN1CCCCC1.O [Example 18, 2-(2-Piperidino)acetyl-L-Pro-L-Arginine Aldehyde Dihydrochloride Monohydrate]	1 L/mol × 10^6							
Cl.Cl.N=C(N)NCCC[C@@H](C=O)NC(=O)[C@@H]1CCCN1C(=O)C1CCCNC1.O (stereo partly drawn) [Example 19, 3-piperidinocarbonyl-L-Pro-L-Arginine Aldehyde Dihydrochloride Monohydrate]	2 L/mol × 10^6							
Cl.Cl.N=C(N)NCCC[C@@H](C=O)NC(=O)[C@@H]1CCCN1C(=O)C1CNC2CCCCC21.O (stereo partly drawn) [Example 20, 3-perhydroindolylcarbonyl-L-pro-L-Arginine Aldehyde Dihydrochloride Monohydrate]	11 L/mol × 10^6							
CNC1CCCCC1C(=O)N1CCC[C@H]1C(=O)N[C@H](C=O)CCCNC(=N)N.Cl.Cl (stereo partly drawn) [Example 21, 2-(N-methyl)aminocyclohexyl-carbonyl-L-Pro-L-Arginine Aldehyde Dihydrochloride]	18.4 L/mol × 10^6							
Cl.Cn1c(C(=O)N[C@@](C)(C(=O)N2CC[C@H]2C(=O)N[C@H](C=O)CCCNC(=N)N)c2ccccc2)cc2ccccc21 [Example 23, 1-methylindole-2-carbonyl-D-(α-methyl)phenylglycine-Azt-Arg-H hydrochloride]	79 L/mol × 10^6	0.02 L/mol × 10^6	0.55 L/mol × 10^6	0.06 L/mol × 10^6	29 L/mol × 10^6	1,800 ng/mL	59 ng/mL	1,980 ng/mL
Cl.Cl.N=C(N)NCCC[C@@H](C=O)NC(=O)[C@@H]1CCCN1C(=O)[C@@]1(Cc2ccccc2)CCCN1.O.O [Example 24, D-Prolinyl (αbenzyl)-L-Prolinyl-L-arginine aldehyde, dihydrochloride dihydrate]	12 L/mol × 10^6	0.0034 L/mol × 10^6	0.31 L/mol × 10^6	0.13 L/mol × 10^6	14 L/mol × 10^6	2,100 ng/mL	160 ng/mL	3,600 ng/mL
Cl.Cl.N=C(N)NCCC[C@@H](C=O)NC(=O)[C@]1(Cc2ccccc2)CCCN1C(=O)[C@@H]1CCCN1 [Example 25, Prolinyl (αbenzyl)-L-Prolinyl-L-Arginine Aldehyde Dihydrochloride]	350 L/mol × 10^6	0.0045 L/mol × 10^6	0.77 L/mol × 10^6	0.27 L/mol × 10^6	43 L/mol × 10^6	960 ng/mL	28 ng/mL	1,400 ng/mL
Cl.Cl.N=C(N)NCCC[C@@H](C=O)NC(=O)[C@@H]1CCCN1C(=O)C1(Cc2ccccc2)CCN1 (stereo partly drawn) [Example 26]	75 L/mol × 10^6	0.0028 L/mol × 10^6	0.17 L/mol × 10^6	0.12 L/mol × 10^6	17 L/mol × 10^6	1,400 ng/mL	42 ng/mL	1,100 ng/mL
CCOC(=O)N[C@H](Cc1ccccc1)C(=O)N1CCC[C@@]1(C)C(=O)N[C@H](C=O)CCCNC(=N)N.Cl [Example 27, N-ethoxycarbonyl-D-Phenylalanyl(α-methyl)-L-prolinyl-L-arginine aldehyde hydrochloride]	75 L/mol × 10^6	0.00079 L/mol × 10^6	0.059 L/mol × 10^6	0.044 L/mol × 10^6	2.4 L/mol × 10^6	2,500 ng/mL	48 ng/mL	2,200 ng/mL
CCCCC(CCCC)(NC(=O)OCC)C(=O)N1CCC[C@H]1C(=O)N[C@H](C=O)CCCNC(=N)N.Cl [Example 42, N-ethoxycarbonylglycinyl(α,αdi-n-butyl)-L-prolinyl-L-arginine aldehyde hydrochloride]		0.010 L/mol × 10^6	0.24 L/mol × 10^6	0.22 L/mol × 10^6	38 L/mol × 10^6	3,000 ng/mL	120 ng/mL	2,800 ng/mL
